Assay results published in ChEMBL document CHEMBL1201862, “PubChem BioAssay data set” (2004).
Active and inactive are the calls of the source.

What was measured:
[1] = biological target: T1, Serine/threonine-protein phosphatase (Candida dubliniensis (strain CD36 / CBS 7987 / NCPF 3949 / NRRLY-17841) (Yeast), UniProt B9W6M3); test: blockers of CaCl2-induced CDRE-lacZ signaling – S. cerevisiae, luminescence, secondary, dose response (AID 2388); format: functional, cell-based;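 also: yeast reporter cells carrying a calcineurin-responsive lacZ construct stimulated with calcium chloride; luminescent beta-galactosidase reporter signal in whole cells rather than isolated phosphatase activity; potency for inhibition where a drop in reporter signal means calcineurin blockade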
T1 sequence (B9W6M3 whole entry): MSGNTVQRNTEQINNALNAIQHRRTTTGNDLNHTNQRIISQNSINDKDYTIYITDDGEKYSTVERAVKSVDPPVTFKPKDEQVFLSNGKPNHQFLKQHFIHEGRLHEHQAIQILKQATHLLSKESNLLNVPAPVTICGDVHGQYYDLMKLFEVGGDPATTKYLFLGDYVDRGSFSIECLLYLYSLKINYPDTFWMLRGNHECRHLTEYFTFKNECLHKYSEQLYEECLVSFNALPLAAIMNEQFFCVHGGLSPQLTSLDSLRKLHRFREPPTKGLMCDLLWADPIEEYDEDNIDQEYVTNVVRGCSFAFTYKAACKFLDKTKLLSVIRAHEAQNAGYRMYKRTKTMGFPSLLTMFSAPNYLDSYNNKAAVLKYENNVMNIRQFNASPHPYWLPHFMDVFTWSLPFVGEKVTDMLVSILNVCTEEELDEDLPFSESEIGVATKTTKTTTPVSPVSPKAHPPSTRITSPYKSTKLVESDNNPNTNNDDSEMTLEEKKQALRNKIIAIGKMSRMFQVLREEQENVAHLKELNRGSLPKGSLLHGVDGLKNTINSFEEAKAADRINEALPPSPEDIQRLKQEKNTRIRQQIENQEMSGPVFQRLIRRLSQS

[2] = DRD fibroblast viability loss – cell-based, non-viral oncogenic, luminescence, dose response (AID 1934); format: functional; conditions: Homo sapiens
Integrin alpha-4 = Integrin alpha-4 (Homo sapiens, UniProt P13612); test: allosteric modulators of alpha4 integrin VLA-4 – cell-based, LIBS antibody binding, flow cytometry, SAR follow-up (AID 488791); format: functional
[3] = biological target: T2, Alkaline phosphatase, tissue-nonspecific isozyme (Homo sapiens, UniProt P05186); test: TNAP enzyme inhibition by screening hits, dose response, selectivity assay for mouse IAP inhibitor project, biochemical, human TNAP, uHTS hits (AID 488906); format: functional
T2 sequence (P05186 whole entry): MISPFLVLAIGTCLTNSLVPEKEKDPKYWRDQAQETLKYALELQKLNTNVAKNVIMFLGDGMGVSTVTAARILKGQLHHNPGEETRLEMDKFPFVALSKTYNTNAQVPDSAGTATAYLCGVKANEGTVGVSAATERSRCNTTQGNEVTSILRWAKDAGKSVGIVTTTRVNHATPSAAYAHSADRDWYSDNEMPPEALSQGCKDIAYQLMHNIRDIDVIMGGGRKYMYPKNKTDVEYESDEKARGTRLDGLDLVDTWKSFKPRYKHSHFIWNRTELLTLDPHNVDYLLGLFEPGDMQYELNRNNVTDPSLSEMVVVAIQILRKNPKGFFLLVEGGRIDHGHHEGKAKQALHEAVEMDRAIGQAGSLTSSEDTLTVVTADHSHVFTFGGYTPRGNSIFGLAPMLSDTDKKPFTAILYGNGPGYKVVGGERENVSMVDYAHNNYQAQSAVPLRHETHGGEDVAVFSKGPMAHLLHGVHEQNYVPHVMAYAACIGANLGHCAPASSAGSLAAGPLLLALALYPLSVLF

[4] = biological target: T2, Alkaline phosphatase, tissue-nonspecific isozyme; test: inhibition of tissue-nonspecific alkaline phosphatase – biochemical, dose response (AID 488882); format: functional
[5] = biological target: Intestinal-type alkaline phosphatase (Homo sapiens, UniProt P09923); test: inhibition of human intestinal alkaline phosphatase – biochemical, dose response (AID 488876); format: functional
[6] = biological target: Protein kinase C theta type (Homo sapiens, UniProt Q04759); test: Navigating the Kinome. Panel member name: PRKCQ; format: functional
[7] = biological target: 5'-AMP-activated protein kinase catalytic subunit alpha-1 (Homo sapiens, UniProt Q13131); format: functional
[8] = biological target: Serine/threonine-protein kinase 17A (Homo sapiens, UniProt Q9UEE5); format: functional
[9] = biological target: Tyrosine-protein kinase Lck (Homo sapiens, UniProt P06239); format: functional;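 also: lck was assayed as one member of a kinase panel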
[10] = biological target: Mitogen-activated protein kinase 9 (Homo sapiens, UniProt P45984); format: functional;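 also: value from a kinome panel profiling assay, MAPK9 panel entry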
[11] = biological target: Tyrosine-protein kinase ITK/TSK (Homo sapiens, UniProt Q08881); format: functional;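 also: affinity for ITK measured as one member of a broad kinase panel profiling binding across the kinome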
[12] = biological target: Homeodomain-interacting protein kinase 2 (Homo sapiens, UniProt Q9H2X6); format: functional;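 also: measured within a kinome-wide kinase profiling panel, HIPK2 being one panel member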
[13] = biological target: Mitogen-activated protein kinase kinase kinase kinase 2 (Homo sapiens, UniProt Q12851); format: functional;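 also: measured as one member of a kinome-wide kinase panel, with MAP4K2 as the panel entry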
[14] = biological target: Receptor-type tyrosine-protein kinase FLT3 (Homo sapiens, UniProt P36888); format: functional;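 also: FLT3 was tested as one member of a kinome-wide kinase panel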
[15] = biological target: Vascular endothelial growth factor receptor 2 (Homo sapiens, UniProt P35968); format: functional
Misshapen-like kinase 1 = Misshapen-like kinase 1 (Homo sapiens, UniProt Q8N4C8); format: functional;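 also: kinome panel screen with MINK as the panel member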
[16] = biological target: cAMP-dependent protein kinase catalytic subunit alpha (Homo sapiens, UniProt P17612); format: functional
[17] = biological target: Inhibitor of nuclear factor kappa-B kinase subunit epsilon (Homo sapiens, UniProt Q14164); test: Navigating the Kinome. Panel member name: IKBKE; format: functional
[18] = biological target: Tyrosine-protein kinase FRK (Homo sapiens, UniProt P42685); format: functional;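 also: FRK tested as one member of a kinome panel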
[19] = biological target: Serine/threonine-protein kinase 3 (Homo sapiens, UniProt Q13188); format: functional;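 also: measured as one member of a kinome-wide kinase panel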
Sequence of Serine/threonine-protein kinase 3 (Q13188 whole entry): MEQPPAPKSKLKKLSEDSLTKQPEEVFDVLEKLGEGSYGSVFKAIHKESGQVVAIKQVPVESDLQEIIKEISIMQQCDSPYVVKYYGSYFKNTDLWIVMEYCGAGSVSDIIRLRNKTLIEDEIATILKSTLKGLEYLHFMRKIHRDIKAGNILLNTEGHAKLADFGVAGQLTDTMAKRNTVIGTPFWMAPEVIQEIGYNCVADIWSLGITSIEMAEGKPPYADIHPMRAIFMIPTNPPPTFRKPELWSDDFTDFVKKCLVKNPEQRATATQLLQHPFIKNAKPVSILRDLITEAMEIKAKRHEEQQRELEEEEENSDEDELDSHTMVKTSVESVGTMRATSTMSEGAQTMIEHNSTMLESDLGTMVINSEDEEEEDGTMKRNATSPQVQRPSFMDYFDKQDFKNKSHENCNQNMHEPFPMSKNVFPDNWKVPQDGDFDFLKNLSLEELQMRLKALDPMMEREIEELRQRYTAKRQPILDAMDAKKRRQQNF

Sequence of Homeodomain-interacting protein kinase 2 (Q9H2X6 whole entry): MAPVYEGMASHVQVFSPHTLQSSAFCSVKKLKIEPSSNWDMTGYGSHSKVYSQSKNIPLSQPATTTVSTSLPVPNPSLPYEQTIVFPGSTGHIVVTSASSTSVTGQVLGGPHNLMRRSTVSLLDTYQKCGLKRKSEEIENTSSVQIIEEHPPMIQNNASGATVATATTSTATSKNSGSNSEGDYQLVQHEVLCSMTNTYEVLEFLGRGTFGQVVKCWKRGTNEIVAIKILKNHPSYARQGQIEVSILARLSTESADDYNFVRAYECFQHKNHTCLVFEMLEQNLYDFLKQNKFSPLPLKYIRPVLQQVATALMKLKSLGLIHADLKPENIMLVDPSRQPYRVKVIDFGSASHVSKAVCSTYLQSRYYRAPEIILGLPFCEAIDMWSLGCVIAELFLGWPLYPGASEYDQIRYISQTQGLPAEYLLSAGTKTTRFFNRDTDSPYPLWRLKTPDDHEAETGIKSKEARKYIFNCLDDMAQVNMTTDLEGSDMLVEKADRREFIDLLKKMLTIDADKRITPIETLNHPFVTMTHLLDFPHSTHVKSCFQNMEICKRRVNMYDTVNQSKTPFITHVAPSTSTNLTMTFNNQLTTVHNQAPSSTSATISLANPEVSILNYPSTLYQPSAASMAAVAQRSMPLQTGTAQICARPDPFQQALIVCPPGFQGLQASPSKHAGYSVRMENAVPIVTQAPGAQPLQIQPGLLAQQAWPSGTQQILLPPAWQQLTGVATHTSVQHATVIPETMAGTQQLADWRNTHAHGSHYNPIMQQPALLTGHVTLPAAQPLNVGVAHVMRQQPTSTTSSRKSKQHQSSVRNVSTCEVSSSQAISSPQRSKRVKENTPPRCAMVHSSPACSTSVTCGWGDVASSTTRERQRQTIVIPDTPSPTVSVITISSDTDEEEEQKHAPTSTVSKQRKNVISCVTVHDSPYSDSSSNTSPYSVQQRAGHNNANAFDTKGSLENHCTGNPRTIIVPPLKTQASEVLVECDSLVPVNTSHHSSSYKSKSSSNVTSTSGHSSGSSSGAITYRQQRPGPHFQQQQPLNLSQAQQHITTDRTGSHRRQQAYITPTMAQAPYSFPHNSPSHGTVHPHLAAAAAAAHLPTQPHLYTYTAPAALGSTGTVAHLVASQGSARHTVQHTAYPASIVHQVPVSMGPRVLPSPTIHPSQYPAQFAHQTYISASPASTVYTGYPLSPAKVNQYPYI
Sequence of Inhibitor of nuclear factor kappa-B kinase subunit epsilon (Q14164 whole entry): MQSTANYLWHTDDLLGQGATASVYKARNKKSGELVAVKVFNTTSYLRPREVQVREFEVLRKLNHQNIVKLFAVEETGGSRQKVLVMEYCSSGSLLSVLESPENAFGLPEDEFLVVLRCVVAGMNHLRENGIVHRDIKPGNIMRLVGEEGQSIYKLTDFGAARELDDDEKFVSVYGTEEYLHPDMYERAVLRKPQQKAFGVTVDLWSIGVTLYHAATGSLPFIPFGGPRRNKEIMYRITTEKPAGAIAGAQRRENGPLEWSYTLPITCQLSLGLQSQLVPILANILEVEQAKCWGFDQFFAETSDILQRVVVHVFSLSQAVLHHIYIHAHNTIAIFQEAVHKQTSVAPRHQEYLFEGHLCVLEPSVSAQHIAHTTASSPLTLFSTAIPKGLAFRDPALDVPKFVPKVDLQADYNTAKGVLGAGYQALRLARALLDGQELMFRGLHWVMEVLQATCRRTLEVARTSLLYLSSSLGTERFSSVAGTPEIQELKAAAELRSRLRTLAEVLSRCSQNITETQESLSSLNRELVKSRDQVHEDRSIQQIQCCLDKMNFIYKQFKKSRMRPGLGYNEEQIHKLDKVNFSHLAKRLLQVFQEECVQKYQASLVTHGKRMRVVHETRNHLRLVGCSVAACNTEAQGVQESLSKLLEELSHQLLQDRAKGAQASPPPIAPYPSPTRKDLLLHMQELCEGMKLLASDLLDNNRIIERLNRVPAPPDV
Sequence of Mitogen-activated protein kinase kinase kinase kinase 2 (Q12851 whole entry): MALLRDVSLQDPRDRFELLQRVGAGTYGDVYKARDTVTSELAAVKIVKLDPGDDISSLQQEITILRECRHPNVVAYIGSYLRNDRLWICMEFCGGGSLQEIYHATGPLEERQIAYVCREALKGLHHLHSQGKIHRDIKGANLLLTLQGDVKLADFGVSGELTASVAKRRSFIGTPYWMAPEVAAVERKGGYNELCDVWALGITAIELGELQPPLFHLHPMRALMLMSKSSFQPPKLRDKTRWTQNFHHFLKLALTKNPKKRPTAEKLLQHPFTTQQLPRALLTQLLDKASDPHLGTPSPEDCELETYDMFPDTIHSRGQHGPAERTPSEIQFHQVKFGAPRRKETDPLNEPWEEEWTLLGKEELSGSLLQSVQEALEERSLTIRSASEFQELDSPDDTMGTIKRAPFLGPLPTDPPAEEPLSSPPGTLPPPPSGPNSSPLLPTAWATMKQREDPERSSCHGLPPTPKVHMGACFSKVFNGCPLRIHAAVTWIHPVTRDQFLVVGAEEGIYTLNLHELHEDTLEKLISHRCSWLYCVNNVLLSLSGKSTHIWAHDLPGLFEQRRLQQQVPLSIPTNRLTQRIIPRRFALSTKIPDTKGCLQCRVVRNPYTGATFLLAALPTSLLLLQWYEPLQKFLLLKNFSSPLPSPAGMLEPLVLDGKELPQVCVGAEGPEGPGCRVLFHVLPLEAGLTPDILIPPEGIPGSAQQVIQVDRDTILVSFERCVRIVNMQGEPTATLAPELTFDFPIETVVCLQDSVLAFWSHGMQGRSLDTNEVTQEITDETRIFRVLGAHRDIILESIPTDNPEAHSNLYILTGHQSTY
Sequence of Intestinal-type alkaline phosphatase (P09923 whole entry): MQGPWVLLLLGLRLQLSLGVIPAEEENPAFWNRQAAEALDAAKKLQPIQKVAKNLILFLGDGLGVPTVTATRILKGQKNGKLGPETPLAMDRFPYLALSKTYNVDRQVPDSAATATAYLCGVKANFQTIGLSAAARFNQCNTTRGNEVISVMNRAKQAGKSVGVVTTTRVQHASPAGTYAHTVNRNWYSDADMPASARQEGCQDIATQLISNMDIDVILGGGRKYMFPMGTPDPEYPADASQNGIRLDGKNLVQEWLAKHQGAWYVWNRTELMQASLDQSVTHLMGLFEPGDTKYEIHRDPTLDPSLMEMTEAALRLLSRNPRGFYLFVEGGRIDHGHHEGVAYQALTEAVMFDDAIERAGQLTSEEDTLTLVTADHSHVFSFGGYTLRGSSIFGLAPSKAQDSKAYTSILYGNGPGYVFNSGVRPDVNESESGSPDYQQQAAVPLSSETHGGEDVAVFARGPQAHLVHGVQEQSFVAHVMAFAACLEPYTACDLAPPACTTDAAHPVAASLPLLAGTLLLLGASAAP
Sequence of Mitogen-activated protein kinase 9 (P45984 whole entry): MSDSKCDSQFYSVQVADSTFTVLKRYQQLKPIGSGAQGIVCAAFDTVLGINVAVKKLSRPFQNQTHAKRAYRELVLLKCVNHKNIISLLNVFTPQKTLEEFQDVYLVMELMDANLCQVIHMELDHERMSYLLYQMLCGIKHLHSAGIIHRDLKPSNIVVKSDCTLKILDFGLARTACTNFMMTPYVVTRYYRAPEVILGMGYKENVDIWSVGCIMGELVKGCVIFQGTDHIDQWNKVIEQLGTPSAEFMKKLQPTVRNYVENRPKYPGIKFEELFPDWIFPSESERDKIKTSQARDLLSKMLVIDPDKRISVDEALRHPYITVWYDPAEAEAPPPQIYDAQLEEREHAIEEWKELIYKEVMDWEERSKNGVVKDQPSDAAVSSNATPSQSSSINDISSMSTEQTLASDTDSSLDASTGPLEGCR
Sequence of Tyrosine-protein kinase ITK/TSK (Q08881 whole entry): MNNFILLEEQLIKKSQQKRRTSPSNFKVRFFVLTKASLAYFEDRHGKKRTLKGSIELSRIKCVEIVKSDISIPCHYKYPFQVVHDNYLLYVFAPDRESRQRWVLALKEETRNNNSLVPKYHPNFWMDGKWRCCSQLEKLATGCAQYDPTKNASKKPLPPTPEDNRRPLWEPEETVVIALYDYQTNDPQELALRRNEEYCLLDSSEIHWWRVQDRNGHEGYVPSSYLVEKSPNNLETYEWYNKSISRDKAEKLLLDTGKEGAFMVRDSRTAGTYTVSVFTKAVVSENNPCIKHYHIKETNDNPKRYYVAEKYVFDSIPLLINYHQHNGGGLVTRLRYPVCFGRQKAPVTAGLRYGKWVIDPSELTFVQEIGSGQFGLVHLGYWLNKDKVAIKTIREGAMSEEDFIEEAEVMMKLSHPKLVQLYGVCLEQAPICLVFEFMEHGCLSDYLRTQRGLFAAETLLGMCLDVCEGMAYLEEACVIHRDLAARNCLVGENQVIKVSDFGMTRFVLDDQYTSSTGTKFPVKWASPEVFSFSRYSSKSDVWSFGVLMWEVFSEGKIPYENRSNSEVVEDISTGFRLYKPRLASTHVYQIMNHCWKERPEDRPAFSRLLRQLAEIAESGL

## CN(C)S(=O)(=O)Oc1cccc(C(=O)Nc2ccc(Cl)c(Cl)c2)c1
[1]
  EC50: > 180 µM (inactive)

## COC(=O)C1CN(C#N)N(c2ccc(Cl)cc2)C12c1ccccc1-c1ccccc12 (stereo unspecified)
[2]
  EC50: 3.75 µM (active)
Integrin alpha-4
  EC50: 18.9 µM (active)

## O=C(NN1C(=O)CSC1=S)C(=O)NN1C(=O)CSC1=S
[3]
  IC50: > 100 µM (inactive)
[4]
  IC50: 12.8 µM (active)
[5]
  IC50: > 100 µM (inactive)

## Nc1noc2cccc(-c3cccc(O)c3)c12
[6]
  Ki: 20 µM (active)
[7]
  Ki: > 25.1 µM (inactive)
[8]
  Ki: > 3.98 µM (inactive)
[9]
  Ki: > 25.1 µM (inactive)
[10]
  Ki: > 3.98 µM (inactive)
[11]
  Ki: > 1.58 µM (inactive)
[12]
  Ki: > 3.16 µM (inactive)
[13]
  Ki: 15.8 µM (active)
[14]
  Ki: 10 µM (active)
[15]
  Ki: 7.94 µM (active)
Misshapen-like kinase 1
  Ki: 3.16 µM (active)
[16]
  Ki: 2.51 µM (active)
[17]
  Ki: 39.8 µM (active)
[18]
  Ki: 0.0398 µM (active)
[19]
  Ki: 6.31 µM (active)
